Data published in US12503436B2, “Compounds and compositions for treating conditions associated with STING activity” (NOVARTIS PHARMA AG, priority 2021, dated 2025).
pEC50: −log10 of the molar value.

molecular target: STING (Homo sapiens, UniProt Q86WV6, G230A/H232R/R293Q/R71H); test: STING reporter assay in THP1-Dual KO-IFNAR2 cells (2′3′cGAMP stimulation, luciferase reporter); type: cell-based; conditions: 15 μM 2′3′cGAMP stimulation, 24 h, read-out: Pharmaron, THP1_IFNAR2 STING 24 h Luci Normalized: GeoMean EC50
Outline: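 THP1-Dual KO-IFNAR2 cells (2×10E6 cells/mL) with compounds at 0.0017-100 μM final, stimulated with 15 μM final 2′3′cGAMP delivered by Lipofectamine 2000; 24 h at 37 °C. Luciferase in supernatant read with QUANTI-Luc Plus; EC50 derived from luminescence.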

Sequence of STING (Q86WV6 whole entry R71H/G230A/H232R/R293Q): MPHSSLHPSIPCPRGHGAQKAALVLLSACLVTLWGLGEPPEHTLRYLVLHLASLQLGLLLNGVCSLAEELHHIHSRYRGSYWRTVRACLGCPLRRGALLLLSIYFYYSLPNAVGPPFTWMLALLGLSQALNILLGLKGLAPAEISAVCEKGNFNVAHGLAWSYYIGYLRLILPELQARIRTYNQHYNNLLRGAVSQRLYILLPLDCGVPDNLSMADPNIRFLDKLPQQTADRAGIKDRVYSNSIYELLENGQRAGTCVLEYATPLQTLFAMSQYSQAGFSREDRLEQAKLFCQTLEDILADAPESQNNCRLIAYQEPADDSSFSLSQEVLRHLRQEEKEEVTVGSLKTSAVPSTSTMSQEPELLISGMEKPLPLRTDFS

Compared with `CC(=O)Nc1c[nH]c2ccc(OC3CCN(c4ccc(C(F)(F)F)cc4)C3)cc12` (stereo not shown) [Compound 494, N-(5-((1-(4-(trifluoromethyl)phenyl)pyrrolidin-3-yl)oxy)-1H-indol-3-yl)acetamide], `CC(=O)Nc1c[nH]c2ccc(OC(C)c3ccc(C(F)(F)F)cc3)cc12` (stereo not shown) [Compound 497, N-(5-(1-(4-(trifluoromethyl)phenyl)ethoxy)-1H-indol-3-yl)acetamide] is lower in pEC50: 6.00 to 6.70 for the first, 5.30 to 6.00 for the second. The first is the more potent here.

First: CC(=O)Nc1c[nH]c2ccc(C#Cc3ccc(C(F)(F)F)cc3)cc12 [Compound 495, N-(5-((4-(trifluoromethyl)phenyl)ethynyl)-1H-indol-3-yl)acetamide]
Second: CC(=O)Nc1c[nH]c2ccc(CC(N)Cc3ccc(C(F)(F)F)cc3)cc12 (stereo not shown) [Compound 517, N-(5-(2-amino-3-(4-(trifluoromethyl)phenyl)propyl)-1H-indol-3-yl)acetamide]
The pEC50 of the first is higher: 5.30 to 6.00 for the first, 4.00 to 5.30 for the second. The first is the more potent here.

`CC1(C)OC(C)(C)C1C(=O)Nc1c[nH]c2ccc(OCc3ccc(C(F)(F)F)cc3)cc12` [Compound 496, 2,2,4,4-tetramethyl-N-(5-((4-(trifluoromethyl)benzyl)oxy)-1H-indol-3-yl)oxetane-3-carboxamide] and `CC1OC(C)C1C(=O)Nc1c[nH]c2ccc(OCCc3ccc(C(F)(F)F)cc3)cc12` (stereo not shown) [Compound 525, 2,4-dimethyl-N-(5-(4-(trifluoromethyl)phenethoxy)-1H-indol-3-yl)oxetane-3-carboxamide] fall in the same range of pEC50: 6.00 to 6.70 for the first, 6.00 to 6.70 for the second.

First: O=C(Nc1c[nH]c2ccc(OCCC3CCCN(CC(F)(F)F)C3)cc12)C1CC1 (stereo not shown) [Compound 498, N-(5-(2-(1-(2,2,2-trifluoroethyl)piperidin-3-yl)ethoxy)-1H-indol-3-yl)cyclopropanecarboxamide]
Second: C[C@@H]1OC[C@H]1C(=O)Nc1c[nH]c2ccc(OCC[C@@H]3C[C@@H]4CN(CC(F)(F)F)C[C@@H]4C3)cc12 [Compound 509, (2S,3R)-2-methyl-N-(5-(2-((3aR,5r,6aS)-2-(2,2,2-trifluoroethyl)octahydrocyclopenta[c]pyrrol-5-yl)ethoxy)-1H-indol-3-yl)oxetane-3-carboxamide]
The pEC50 of the first is higher: 6.00 to 6.70 for the first, 5.30 to 6.00 for the second. The first is the more potent here.

First: CC(=O)Nc1c[nH]c2ccc(CCOC(C)(C)C3CCN(CC(F)(F)F)C3)cc12 (stereo not shown) [Compound 499, N-(5-(2-((2-(1-(2,2,2-trifluoroethyl)pyrrolidin-3-yl)propan-2-yl)oxy)ethyl)-1H-indol-3-yl)acetamide]
Second: CC(C)(O)CC(=O)Nc1c[nH]c2ccc(OCC[C@@H]3C[C@@H]4CN(CC(F)(F)F)C[C@@H]4C3)cc12 [Compound 523, 3-hydroxy-3-methyl-N-(5-(2-((3aR,5r,6aS)-2-(2,2,2-trifluoroethyl)octahydrocyclopenta[c]pyrrol-5-yl)ethoxy)-1H-indol-3-yl)butanamide]
The pEC50 of the first is lower: 4.00 to 5.30 for the first, 6.00 to 6.70 for the second. The second is the more potent here.

First: CC(=O)Nc1c[nH]c2ccc(CO[C@H]3C[C@@H](c4ccc(C(F)(F)F)cc4)C3)cc12 [Compound 500, N-(5-((cis-3-(4-(trifluoromethyl)phenyl)cyclobutoxy)methyl)-1H-indol-3-yl)acetamide]
Second: O=C(Nc1c[nH]c2ccc(O[C@H]3C[C@H](c4ccc(C(F)(F)F)cc4)C3)cc12)C1COC1 [Compound 518, N-(5-(trans-3-(4-(trifluoromethyl)phenyl)cyclobutoxy)-1H-indol-3-yl)oxetane-3-carboxamide]
The pEC50 of the first is higher: 6.70 to 7.40 for the first, 6.00 to 6.70 for the second. The first is the more potent here.

First: CC(=O)Nc1c[nH]c2ccc(OCC[C@H]3CC[C@](O)(C(F)(F)F)CC3)cc12 [Compound 501, N-(5-(2-(cis-4-hydroxy-4-(trifluoromethyl)cyclohexyl)ethoxy)-1H-indol-3-yl)acetamide]
Second: C[C@]1(C(=O)Nc2c[nH]c3ccc(OCC[C@@H]4C[C@@H]5CN(CC(F)(F)F)C[C@@H]5C4)cc23)CC[C@H](O)CC1 [Compound 504, (1r,4R)-4-hydroxy-1-methyl-N-(5-(2-((3aR,5r,6aS)-2-(2,2,2-trifluoroethyl)octahydrocyclopenta[c]pyrrol-5-yl)ethoxy)-1H-indol-3-yl)cyclohexane-1-carboxamide]
The pEC50 of the first is lower: 5.30 to 6.00 for the first, 6.00 to 6.70 for the second.

`C[C@]1(C(=O)Nc2c[nH]c3ccc(OCC[C@@H]4C[C@@H]5CN(CC(F)(F)F)C[C@@H]5C4)cc23)CC[C@@H](O)CC1` [Compound 505, (1s,4S)-4-hydroxy-1-methyl-N-(5-(2-((3aR,5r,6aS)-2-(2,2,2-trifluoroethyl)octahydrocyclopenta[c]pyrrol-5-yl)ethoxy)-1H-indol-3-yl)cyclohexane-1-carboxamide] and `C[C@]1(C(=O)Nc2c[nH]c3ccc(OCC[C@@H]4C[C@@H]5CN(CC(F)(F)F)C[C@@H]5C4)cc23)C[C@@H](O)C1` [Compound 513, (1s,3S)-3-hydroxy-1-methyl-N-(5-(2-((3aR,5r,6aS)-2-(2,2,2-trifluoroethyl)octahydrocyclopenta[c]pyrrol-5-yl)ethoxy)-1H-indol-3-yl)cyclobutane-1-carboxamide] fall in the same range of pEC50: 6.00 to 6.70 for the first, 6.00 to 6.70 for the second.

`CNC(Cc1ccc(C(F)(F)F)cc1)Cc1ccc2[nH]cc(NC(C)=O)c2c1` (stereo not shown) [Compound 506, N-(5-(2-(methylamino)-3-(4-(trifluoromethyl)phenyl)propyl)-1H-indol-3-yl)acetamide] and `CC(=O)Nc1c[nH]c2ccc(CC(Cc3ccc(C(F)(F)F)cc3)NC(C)=O)cc12` (stereo not shown) [Compound 516, N-(1-(3-acetamido-1H-indol-5-yl)-3-(4-(trifluoromethyl)phenyl)propan-2-yl)acetamide] fall in the same range of pEC50: 4.00 to 5.30 for the first, 4.00 to 5.30 for the second.

`CC(=O)Nc1c[nH]c2ccc(CC3(c4ccc(C(F)(F)F)cc4)CCOC3)cc12` (stereo not shown) [Compound 507, N-(5-((3-(4-(trifluoromethyl)phenyl)tetrahydrofuran-3-yl)methyl)-1H-indol-3-yl)acetamide] and `CC(=O)Nc1c[nH]c2ccc(CCC3(c4ccc(C(F)(F)F)cc4)COC3)cc12` [Compound 508, N-(5-(2-(3-(4-(trifluoromethyl)phenyl)oxetan-3-yl)ethyl)-1H-indol-3-yl)acetamide] fall in the same range of pEC50: 4.00 to 5.30 for the first, 4.00 to 5.30 for the second.

`C[C@H]1OC[C@H]1C(=O)Nc1c[nH]c2ccc(OCC[C@@H]3C[C@@H]4CN(CC(F)(F)F)C[C@@H]4C3)cc12` [Compound 510, (2R,3R)-2-methyl-N-(5-(2-((3aR,5r,6aS)-2-(2,2,2-trifluoroethyl)octahydrocyclopenta[c]pyrrol-5-yl)ethoxy)-1H-indol-3-yl)oxetane-3-carboxamide] and `CC[C@H](O)C(=O)Nc1c[nH]c2ccc(OCC[C@@H]3C[C@@H]4CN(CC(F)(F)F)C[C@@H]4C3)cc12` [Compound 521, (S)-2-hydroxy-N-(5-(2-((3aR,5r,6aS)-2-(2,2,2-trifluoroethyl)octahydrocyclopenta[c]pyrrol-5-yl)ethoxy)-1H-indol-3-yl)butanamide] fall in the same range of pEC50: 6.00 to 6.70 for the first, 6.00 to 6.70 for the second.

`C[C@]1(C(=O)Nc2c[nH]c3ccc(OCC[C@@H]4C[C@@H]5CN(CC(F)(F)F)C[C@@H]5C4)cc23)C[C@@H](CO)C1` [Compound 511, (1s,3S)-3-(hydroxymethyl)-1-methyl-N-(5-(2-((3aR,5r,6aS)-2-(2,2,2-trifluoroethyl)octahydrocyclopenta[c]pyrrol-5-yl)ethoxy)-1H-indol-3-yl)cyclobutane-1-carboxamide] and `C[C@]1(C(=O)Nc2c[nH]c3ccc(OCC[C@@H]4C[C@@H]5CN(CC(F)(F)F)C[C@@H]5C4)cc23)C[C@H](CO)C1` [Compound 512, (1r,3R)-3-(hydroxymethyl)-1-methyl-N-(5-(2-((3aR,5r,6aS)-2-(2,2,2-trifluoroethyl)octahydrocyclopenta[c]pyrrol-5-yl)ethoxy)-1H-indol-3-yl)cyclobutane-1-carboxamide] fall in the same range of pEC50: 6.00 to 6.70 for the first, 6.00 to 6.70 for the second.

First: C[C@]1(C(=O)Nc2c[nH]c3ccc(OCC[C@@H]4C[C@@H]5CN(CC(F)(F)F)C[C@@H]5C4)cc23)C[C@H](O)C1 [Compound 514, (1r,3R)-3-hydroxy-1-methyl-N-(5-(2-((3aR,5r,6aS)-2-(2,2,2-trifluoroethyl)octahydrocyclopenta[c]pyrrol-5-yl)ethoxy)-1H-indol-3-yl)cyclobutane-l-carboxamide]
Second: CO[C@H]1C[C@@](C)(C(=O)Nc2c[nH]c3ccc(OCC[C@@H]4C[C@@H]5CN(CC(F)(F)F)C[C@@H]5C4)cc23)C1 [Compound 515, (1s,3S)-3-methoxy-1-methyl-N-(5-(2-((3aR,5r,6aS)-2-(2,2,2-trifluoroethyl)octahydrocyclopenta[c]pyrrol-5-yl)ethoxy)-1H-indol-3-yl)cyclobutane-1-carboxamide]
The pEC50 of the first is higher: 6.00 to 6.70 for the first, 5.30 to 6.00 for the second.

First: CC(C)(O)CC(=O)Nc1c[nH]c2ccc(OCCc3ccc(C(F)(F)F)cc3)cc12 [Compound 519, 3-hydroxy-3-methyl-N-(5-(4-(trifluoromethyl)phenethoxy)-1H-indol-3-yl)butanamide]
Second: COC(=O)C(Cc1ccc(C(F)(F)F)cc1)Cc1ccc2[nH]cc(NC(C)=O)c2c1 (stereo not shown) [Compound 527, methyl 3-(3-acetamido-1H-indol-5-yl)-2-(4-(trifluoromethyl)benzyl)propanoate]
The pEC50 of the first is higher: 6.70 to 7.40 for the first, 5.30 to 6.00 for the second.

`COCCCC(=O)Nc1c[nH]c2ccc(OCC[C@@H]3C[C@@H]4CN(CC(F)(F)F)C[C@@H]4C3)cc12` [Compound 520, 4-methoxy-N-(5-(2-((3aR,5r,6aS)-2-(2,2,2-trifluoroethyl)octahydrocyclopenta[c]pyrrol-5-yl)ethoxy)-1H-indol-3-yl)butanamide] and `CC[C@@H](O)C(=O)Nc1c[nH]c2ccc(OCC[C@@H]3C[C@@H]4CN(CC(F)(F)F)C[C@@H]4C3)cc12` [Compound 522, (R)-2-hydroxy-N-(5-(2-((3aR,5r,6aS)-2-(2,2,2-trifluoroethyl)octahydrocyclopenta[c]pyrrol-5-yl)ethoxy)-1H-indol-3-yl)butanamide] fall in the same range of pEC50: 6.70 to 7.40 for the first, 6.70 to 7.40 for the second.

With `CC(=O)Nc1c[nH]c2ccc(CCOc3ccc4ncccc4c3)cc12` [Compound 526, N-(5-(2-(quinolin-6-yloxy)ethyl)-1H-indol-3-yl)acetamide] the pEC50 was 4.00 to 5.30.
